Measured values as given in US11679107B2 (Eisai R&D Management Co., Ltd., priority 2018, dated 2023).
Read-outs that look alike come from different tables or passages of the source.

Tests used:
[1] = test system: Ad2 variant pre-mRNAs spliced in HeLa S3 nuclear extracts; experiment: In vitro splicing assay (IVS), RT-qPCR of spliced product; assay type: biochemical; conditions: for IC50: geometric mean; for Ratio Ad2.1/2.2: ratio of IVS IC50 Ad2.1 to Ad2.2
In short: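 Ad2 variant pre-mRNA (2 ng) with FTZΔi control RNA in HeLa S3 nuclear extract (8 μg) was pre-incubated with compound or DMSO for 15 min at 30 °C. Splicing ran 90 min at 30 °C after adding 0.5 mM ATP, creatine phosphate and MgCl2. Spliced product was quantified by TaqMan RT-qPCR, normalized to DMSO, and curve-fitted.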

SF3b complexes = target: T1, SF3b complexes (Homo sapiens, UniProt O75533+Q7RTV0); experiment: Scintillation proximity assay (SPA) with [3H]-labelled pladienolide probe; assay type: binding; conditions: SF3B1 (WT); geometric mean; read-out: SPA-ATS GMean IC50 (nM) SF3B1 (WT)
T1 construct: endogenous in cells; host or cells: Nuclear extracts; A HeLa S3 extract preparation is described for the in vitro splicing assay
In short: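 SF3b complexes captured from nuclear extracts on anti-SF3B1 antibody SPA beads; test compounds pre-incubated 30 min before 2.5 nM [3H]-pladienolide probe added, then 30 min incubation. Bound probe read by scintillation; values from non-linear regression of concentration–response curves.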

[2] = test system: Panc 05.04 cells (SF3b K700E mutant); experiment: Cell proliferation and viability, CellTiter-Glo, 72 hours; assay type: cell-based; conditions: for GI50: geometric mean
In short: (§1)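 Cells grown in RPMI-1640 with 10% FBS (Panc 05.04 with added insulin, 15% FBS total) were exposed to an 11-point half-log dilution, typically 10 μM–100 pM, at 0.1% DMSO for 72 h at 37 °C. ATP content was read by CellTiter-Glo luminescence. Percent inhibition was set against a time-zero plate and DMSO vehicle wells, on a −100% (cidal) to 100% (uninhibited growth) scale.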

[3] = test system: NCI-H1568 cells (high MCL1); experiment: as above; assay type: cell-based; conditions: for GI50: geometric mean
In short: as §1

[4] = Ad2.1 pre-mRNA substrate, read-out: qPCR-IVS-ATS GMean IC50 (nM) Ad2.1
[5] = Ad2.2 pre-mRNA substrate, read-out: qPCR-IVS-ATS GMean IC50 (nM) Ad2.2
[6] = PANC0504.1 cells, 72 h, −100% cidal, 0% static, 100% maximal growth
[7] = Panc 05.04, 72 h, read-out: CTGlo-ATS GMean GI50 (nM) 72 h PANC0504.1, PANC0504.1 cells, 72 h
[8] = NCI-H1568, 72 h, read-out: CTGlo-ATS GMean GI50 (nM) 72 h NCIH1568.1, NCIH1568.1 cells, 72 h
[9] = NCIH1568.1 cells, 72 h, −100% cidal, 0% static, 100% maximal growth
[10] = Panc 05.04, read-out: CTGlo-ATS GMean GI50 (nM) 72 h PANC0504.1, PANC0504.1 cells, 72 h
[11] = NCI-H1568, read-out: CTGlo-ATS GMean GI50 (nM) 72 h NCIH1568.1, NCIH1568.1 cells, 72 h
[12] = 72 h, PANC0504.1, -100% = cidal, 0% = static, 100% = uninhibited growth
[13] = Panc 05.04, read-out: CTGlo-ATS GMean GI50 (nM) 72 h PANC0504.1, 72 h, PANC0504.1
[14] = 72 h, NCIH1568.1, -100% = cidal, 0% = static, 100% = uninhibited growth
[15] = NCI-H1568, read-out: CTGlo-ATS GMean GI50 (nM) 72 h NCIH1568.1, 72 h, NCIH1568.1

Compound | IC50 [1, 4] [nM] | IC50 [1, 5] [nM] | IC50 (SF3b complexes) [nM] | CTGlo-ATS Mean MinResponse % 72 h PANC0504.1 [2, 6] [%] | GI50 [2, 7] [nM] | GI50 [3, 8] [nM] | CTGlo-ATS Mean MinResponse % 72 h NCIH1568.1 [3, 9] [%] | GI50 [2, 10] [nM] | GI50 [3, 11] [nM] | Ratio Ad2.1/2.2 [1] | CTGlo-ATS Mean MinResponse % 72 h PANC0504.1 [2, 12] [%] | GI50 [2, 13] [nM] | CTGlo-ATS Mean MinResponse % 72 h NCIH1568.1 [3, 14] [%] | GI50 [3, 15] [nM] | GI50 ([2]; Panc 05.04, 72 h, read-out: CTGlo-ATS GMean GI50 (nM) 72 h PANC0504.1, 72 h, PANC0504.1) [nM] | GI50 ([3]; NCI-H1568, 72 h, read-out: CTGlo-ATS GMean GI50 (nM) 72 h NCIH1568.1, 72 h, NCIH1568.1) [nM]
C/C(=C\c1cc(F)cc(N2CCN(CC(=O)c3cnccn3)CC2)c1)[C@H]1OC(=O)C[C@H](O)CC[C@H](C)[C@@H](OC(=O)N2CCN(C)CC2)/C=C/[C@@H]1C [Compound 85] | 22 | 27 | 4.74 | −90.914 | 8.42 | 14.1 | −80.438 | – | – | – | – | – | – | – | – | –
CN[C@@H]1CCN(c2cc(F)cc(/C=C(\C)[C@H]3OC(=O)C[C@H](O)CC[C@H](C)[C@@H](OC(=O)N4CCN(C)CC4)/C=C/[C@@H]3C)c2)C1 [Compound 45] | 36.3 | 18.3 | 15.9 | −92.006 | – | – | −98.435 | 35.7 | 18.9 | – | – | – | – | – | – | –
C/C(=C\c1cc(F)cc(N2CCOCC2)c1)[C@H]1OC(=O)C[C@H](O)CC[C@H](C)[C@@H](OC(=O)N2CCN(C)[C@H](C)C2)/C=C/[C@@H]1C [Compound 23] | 369 | 28.3 | 4.23 | −90.781 | – | – | −64.974 | 10.4 | 10.8 | – | – | – | – | – | – | –
C/C(=C\c1cccc(S(=O)(=O)N2CCN(C)CC2)c1)[C@H]1OC(=O)C[C@H](O)CC[C@H](C)[C@@H](OC(=O)N2CCN(C)CC2)/C=C/[C@@H]1C [Compound 211, [(2S,3S,4E,6R,7S,10R)-10-hydroxy-3,7-dimethyl-2-[(E)-1-[3-(4-methylpiperazin-1-yl)sulfonylphenyl]prop-1-en-2-yl]-12-oxo-1-oxacyclododec-4-en-6-yl] 4-methylpiperazine-1-carboxylate] | 651 | 83.4 | 11.9 | – | – | – | – | – | – | 7.806 | −91.820 | 47.6 | −52.358 | 60.6 | – | –
C/C(=C\c1cc(F)cc(N2CCN(C(=O)CC3CC3)CC2)c1)[C@H]1OC(=O)C[C@H](O)CC[C@H](C)[C@@H](OC(=O)N2CCN(C)CC2)/C=C/[C@@H]1C [Compound 121] | 25.5 | 22 | 2.99 | −88.956 | – | – | −80.331 | 3.73 | 2.66 | – | – | – | – | – | – | –
CC(=O)N1CCC(n2nnc3c(F)cc(/C=C(\C)[C@H]4OC(=O)C[C@H](O)CC[C@H](C)[C@@H](OC(=O)N5CCNCC5)/C=C/[C@@H]4C)cc32)CC1 [Compound 253, [(2S,3S,4E,6R,7S,10R)-2-[(E)-1-[3-(1-acetylpiperidin-4-yl)-7-fluorobenzotriazol-5-yl]prop-1-en-2-yl]-10-hydroxy-3,7-dimethyl-12-oxo-1-oxacyclododec-4-en-6-yl] piperazine-1-carboxylate] | 10 | 8.59 | 1.92 | – | – | – | – | – | – | 1.167 | −80.763 | – | −84.782 | – | 12.9 | 2.42
COCCC(=O)N1CCN(c2cc(F)cc(/C=C(\C)[C@H]3OC(=O)C[C@H](O)CC[C@H](C)[C@@H](OC(=O)N4CCN(C)CC4)/C=C/[C@@H]3C)c2)CC1 [Compound 134] | 26.5 | 13.3 | 2.06 | −92.570 | – | – | −79.743 | 4.11 | 3.92 | – | – | – | – | – | – | –
C/C(=C\c1cc(F)cc(N2C[C@@H](C)O[C@@H](C)C2)c1)[C@H]1OC(=O)C[C@H](O)CC[C@H](C)[C@@H](OC(=O)N2CCC(N3CCCCC3)CC2)/C=C/[C@@H]1C [Compound 16] | 100 | 39.2 | 57 | −85.810 | – | – | −88.977 | 41.5 | 59.1 | – | – | – | – | – | – | –
C/C(=C\c1cccc(NS(=O)(=O)C2CC2)c1)[C@H]1OC(=O)C[C@H](O)CC[C@H](C)[C@@H](OC(=O)N2CCN(C)CC2)/C=C/[C@@H]1C [Compound 216, [(2S,3S,4E,6R,7S,10R)-2-[(E)-1-[3-(cyclopropylsulfonylamino)phenyl]prop-1-en-2-yl]-10-hydroxy-3,7-dimethyl-12-oxo-1-oxacyclododec-4-en-6-yl] 4-methylpiperazine-1-carboxylate] | 11100 | 35.7 | 3.32 | – | – | – | – | – | – | 309.648 | −85.005 | 29 | −32.014 | 47.2 | – | –
C/C(=C\c1ccc2cnn(C)c2c1)[C@H]1OC(=O)C[C@H](O)CC[C@H](C)[C@@H](OC(=O)N2CCN(C)CC2)/C=C/[C@@H]1C [Compound 55] | 19900 | 45.3 | 2.37 | −85.478 | – | – | −57.557 | 17.2 | 21.2 | – | – | – | – | – | – | –
C/C(=C\c1cc(Cl)cc(Cl)c1)[C@H]1OC(=O)C[C@H](O)CC[C@H](C)[C@@H](OC(=O)N2CCN(C)CC2)/C=C/[C@@H]1C [Compound 48] | > 25000 | 188 | 11.3 | −89.415 | – | – | −38.837 | 95.2 | 121 | – | – | – | – | – | – | –
C/C(=C\c1cc(F)cc(N2CC[C@H](NS(C)(=O)=O)C2)c1)[C@H]1OC(=O)C[C@H](O)CC[C@H](C)[C@@H](OC(=O)N2CCN(C)CC2)/C=C/[C@@H]1C [Compound 217, [(2S,3S,4E,6R,7S,10R)-2-[(E)-1-[3-fluoro-5-[(3S)-3-(methanesulfonamido)pyrrolidin-1-yl]phenyl]prop-1-en-2-yl]-10-hydroxy-3,7-dimethyl-12-oxo-1-oxacyclododec-4-en-6-yl] 4-methylpiperazine-1-carboxylate] | 18.4 | 16.6 | 3.18 | – | – | – | – | – | – | 1.107 | −91.288 | 15 | −71.339 | 13.8 | – | –
C/C(=C\c1cc(F)cc(N2CC[C@H](N(C)C)C2)c1)[C@H]1OC(=O)C[C@H](O)CC[C@H](C)[C@@H](OC(=O)N2CCN(C)CC2)/C=C/[C@@H]1C [Compound 17] | 46.8 | 34 | 10.7 | −72.749 | – | – | −87.647 | 57.8 | 53.4 | – | – | – | – | – | – | –
CN[C@H]1CCN(c2cc(F)cc(/C=C(\C)[C@H]3OC(=O)C[C@H](O)CC[C@H](C)[C@@H](OC(=O)N4CCN(C)CC4)/C=C/[C@@H]3C)c2)C1 [Compound 39] | 63.1 | 32 | 26 | −89.747 | – | – | −97.412 | 50.1 | 45.6 | – | – | – | – | – | – | –
C/C(=C\c1cc(F)cc(N2CCN(C(=O)C3CCCCC3)CC2)c1)[C@H]1OC(=O)C[C@H](O)CC[C@H](C)[C@@H](OC(=O)N2CCN(C)CC2)/C=C/[C@@H]1C [Compound 114] | 103 | 39.1 | 18.2 | −82.856 | 12.3 | 9.35 | −87.102 | – | – | – | – | – | – | – | – | –
C/C(=C\c1cnn(C2CCN(C)CC2)c1)[C@H]1OC(=O)C[C@H](O)CC[C@H](C)[C@@H](OC(=O)N2CCN(C)CC2)/C=C/[C@@H]1C [Compound 106] | 21300 | 556 | 146 | 25.144 | – | – | 49.516 | 1950 | 9020 | – | – | – | – | – | – | –
